Reference: PMC7660940, “Gerardiins A–L and Structurally Related Phenanthrenes from the Halophyte Plant Juncus gerardii and Their Cytotoxicity against Triple-Negative Breast Cancer Cells” (Journal of Natural Products, 2020)
Read-outs that look alike come from different tables or passages of the source.

Key:
[1] = system: 4T1 (mouse triple-negative breast cancer cells); experiment: MTT viability assay / IC50 determination in 4T1 cells; type: cell-based; details: for cytotoxic effect on 4T1 cells, MTT assay: 20 μM; for cytotoxic effect on 4T1 cells, MTT assay / cytotoxicity (viability of 4T1 cells), MTT assay: 48 h; for cytotoxicity (viability of 4T1 cells), MTT assay: 10 or 20 μM, Figure S74; for IC50: MTT assay, 48 h treatment, n = 6–8, read-out: IC50 [95% C.I.], 4T1
Description: (§1) 4T1 (mouse triple-negative breast cancer cells) were cultured in RPMI (Roswell Park Memorial Institute) 1640 medium supplemented with 5% fetal bovine serum (FBS) (both from Thermo Fisher Scientific, Waltham, MA, USA). MDA-MB-231 (human triple-negative breast cancer cells, abbreviated as MDA) were cultured in DMEM (Dulbecco’s modified Eagle’s medium, Thermo Fisher Scientific) + 5% FBS. D3 (hCMEC/D3 human cerebral microvascular endothelial cells) were kept in rat tail collagen-coated dishes in EBM-2 (endothelial basal medium-2, Lonza, Basel, Switzerland) complemented with 2% FBS and an EGM-2MV kit (Lonza).
(§2) Viability and impedance measurements were performed in the log growth phase of tumor cells and in the stationary phase of endothelial cells.
(§3) For the MTT (3-[4,5-dimethylthiazole-2-yl]-2,5-diphenyltetrazolium bromide) viability assay, cells were plated in 96-well plates (Corning, Corning, NY, USA). The seeding density of the cells was 5000/well (for 4T1 or MDA cells) or 25 000/well (for D3 cells). After 48 h, half of the medium was replaced with serum-free medium, containing the test compounds in a final concentration of 10 or 20 μM. Control wells received solvent (DMSO) in up to a 0.2% concentration. After 48 h, MTT reagent (Sigma-Aldrich, St. Louis, MO, USA) was added to the cells in a final concentration of 2.5 mg/mL. After incubation at 37 °C for 30 min, acidified isopropanol solution was added to each well. Absorbance was measured at 595 nm with a FLUOstar OPTIMA microplate reader (BMG LABTECH, Offenburg, Germany). Doxorubicin was used as a positive control, at a concentration of 10 μM.
(§4) For determining IC50 values, nine-step, 2-fold serial dilutions of the test compounds were applied, starting from 100 μM. Cells were treated for 48 h, and viability was measured with the MTT assay, as described above. Half-maximum inhibitory concentrations (IC50) were calculated via nonlinear dose–response curve fitting by the log(inhibitor) vs response (variable slope) model of GraphPad Prism 5.01 (GraphPad Software, San Diego, CA, USA) by using automatic outlier elimination at Q = 1.0.

[2] = system: 4T1 (mouse triple-negative breast cancer cells); experiment: Impedance measurement (xCELLigence RTCA, cell index) in 4T1 cells; type: cell-based; details: 20 μM, 48 h
Description: as §1, §2
For impedance measurements, cells were plated in 96-well E-plates having microelectrodes integrated on the bottom (ACEA Biosciences, San Diego, CA, USA) and allowed to attach onto the electrode surface for 48 h. Afterward, cells were treated with the test compounds as described above. Electrical impedance was recorded every 30 min for 48 h using an xCELLigence real-time cell analysis (RTCA) instrument (ACEA Biosciences). Cell index was automatically calculated by the software of the instrument.

[3] = system: D3 (hCMEC/D3 human cerebral microvascular endothelial cells); experiment: MTT viability assay / IC50 determination in D3 endothelial cells; type: cell-based; details: for cytotoxicity (viability of D3 cells), MTT assay: 10 or 20 μM, 48 h, Figure S74; for IC50: MTT assay, 48 h treatment, n = 6–8, read-out: IC50 [95% C.I.], D3
Description: as §1, §2, §3, §4

[4] = system: MDA-MB-231 (human triple-negative breast cancer cells); experiment: MTT viability assay / IC50 determination in MDA-MB-231 cells; type: cell-based; details: for cytotoxicity (viability of MDA cells), MTT assay: 10 or 20 μM, 48 h, Figure S74; for IC50: MTT assay, 48 h treatment, n = 6–8, read-out: IC50 [95% C.I.], MDA-MB-231
Description: as §1, §2, §3, §4

[5] = system: A2780 human ovarian cancer cells; design: method as in Bús et al. 8; details: ref Bús et al. 8; cited from earlier work
[6] = system: HeLa cervical cancer cells; design: method as in PMID 31005716; details: cited from earlier work

| Compound | cytotoxic effect on 4T1 cells, MTT assay [1] | cytotoxic effect on 4T1 cells, impedance measurements (cell index) [2] | cytotoxicity (viability of D3 cells), MTT assay [3] | cytotoxicity (viability of 4T1 cells), MTT assay [1] | cytotoxicity (viability of MDA cells), MTT assay [4] | other results |
| --- | --- | --- | --- | --- | --- | --- |
| Cc1c(O)ccc2c1CCc1cc(O)cc(C=O)c1-2 [2,7-dihydroxy-5-formyl-1-methyl-9,10-dihydrophenanthrene] | not cytotoxic | not cytotoxic |  |  |  |  |
| Cc1c(O)ccc2c1CCc1cc(O)cc(CO)c1-2 [2,7-dihydroxy-5-hydroxymethyl-1-methyl-9,10-dihydrophenanthrene] | not cytotoxic | not cytotoxic |  |  |  |  |
| C=Cc1cc(O)cc2c1-c1ccc(OC)c(C)c1CC2 [7-hydroxy-2-methoxy-1-methyl-5-vinyl-9,10-dihydrophenanthrene] | not cytotoxic | not cytotoxic |  |  |  |  |
| Cc1c(O)ccc2c1CCc1cc(O)cc(C3CC=Cc4c5c(cc(O)c43)CCc3c-5ccc(O)c3C)c1-2 (stereo not drawn) [Compound 9, Gerardiin I] |  |  | cytotoxic | cytotoxic | cytotoxic | IC50 ([3]; Homo sapiens, hCMEC/D3): 21.6 µM; IC50 [1]: 7.8 µM; IC50 ([1]; Mus musculus, 4T1, 48 h): < 10 µM; IC50 ([4]; Homo sapiens, MDA-MB-231, 48 h): < 10 µM; IC50 [4]: 8 µM |
| C=Cc1cc(O)c(Cc2c(O)cc(C=C)c3c2ccc2c(C)c(O)ccc23)c2c1-c1ccc(O)c(C)c1CC2 [Compound 12, Gerardiin L] |  |  | cytotoxic | cytotoxic | cytotoxic | IC50 ([3]; Homo sapiens, hCMEC/D3): 13.7 µM; IC50 [1]: > 10 µM; IC50 ([1]; Mus musculus, 4T1, 48 h): 11.7 µM; IC50 ([4]; Homo sapiens, MDA-MB-231, 48 h): 7.3 µM |
| C=Cc1cc(O)cc2c1-c1ccc(O)c(C)c1CC2 [Compound 13, effusol] |  |  | no or very low cytotoxicity | no or very low cytotoxicity | no or very low cytotoxicity |  |
| C=Cc1cc(O)cc2ccc3c(C)c(O)ccc3c12 [Compound 14, dehydroeffusol] |  |  | no or very low cytotoxicity | no or very low cytotoxicity | no or very low cytotoxicity |  |
| C=Cc1cc(O)cc2c1-c1cc(-c3cc4c(c(C)c3O)CCc3cc(O)cc(C=C)c3-4)c(O)c(C)c1CC2 [Compound 15, Effususin A] |  |  | cytotoxic | cytotoxic | cytotoxic | toxicity in A2780 human ovarian cancer cells [5]: moderate toxicity |
| C=Cc1c(C)c(O)cc2c1-c1ccc(OC)c(C)c1CC2 [compressin A] | not cytotoxic | not cytotoxic |  |  |  |  |
| COc1cccc2c1C(=O)c1c(O)c3c(c(O)c1C2=O)C[C@@](O)(C(=O)CO)C[C@@H]3O[C@H]1C[C@H](N)[C@H](O)[C@H](C)O1 [doxorubicin, reference compound] |  |  |  |  |  | IC50 ([3]; Homo sapiens, hCMEC/D3): 0.8 µM; IC50 ([1]; Mus musculus, 4T1, 48 h): 3.4 µM; IC50 ([4]; Homo sapiens, MDA-MB-231, 48 h): 0.8 µM |
| COC(C)c1cc(O)cc2c1-c1ccc(O)c(C)c1CC2 (stereo not drawn) [effususol A] | not cytotoxic | not cytotoxic |  |  |  |  |
| C=C[C@@]1(C)C(=O)C2=C(C[C@H]1O)c1ccc(O)c(C)c1CC2 [jinflexin C] |  | moderate cytotoxicity |  |  |  |  |
| C=Cc1c(C)c(O)cc2c1-c1ccc(O)c(C)c1CC2 [juncusol] | moderate cytotoxicity | moderate cytotoxicity |  |  |  | antiproliferative activity against HeLa cervical cancer cells [6]: antiproliferative activity |
| Gerardiin J [Compound 10] |  |  | cytotoxic | cytotoxic | cytotoxic | IC50 [3]: 15.7 µM; IC50 [1]: 5.6 µM; IC50 [4]: 6.6 µM |
| Gerardiin K [Compound 11] |  |  | cytotoxic | cytotoxic | cytotoxic | IC50 [3]: 10.6 µM; IC50 [1]: 8.1 µM; IC50 [4]: > 10 µM |
